Data taken from article PMC10099666, “Structure Elucidation, Total Synthesis, Antibacterial In Vivo Efficacy and Biosynthesis Proposal of Myxobacterial Corramycin” (Angewandte Chemie (International Ed. in English), 2022).
≈ marks a conversion by molar mass, not a printed value. *1 amine or outer side, *2 acyl side, *3 side chain or, on linkers, in order; H or OH if unused. Where a SMILES comes first, the peptide text is derived from it. [ ]: non-standard residue; d: D form. The star is where a group is joined. Ava(2S,3R-(OH)2,4S-OMe) = CO[C@@H](CN[*:1])[C@H](O)[C@H](O)C(=O)[*:2]; dHis(βS-OH,π-Me) = Cn1cncc1[C@@H](O)[C@@H](N)C(=O)O; Butanoyl(2R-OH,3S-OH) = C[C@H](O)[C@@H](O)C(=O)*; Val(3-OH) = CC(C)(O)[C@H](N)C(=O)O; NMeF = CN[C@@H](Cc1ccccc1)C(=O)O

Columns and labels:
[1] = tested on: Escherichia coli NCTC10418; format: cell-based; conditions: strain NCTC10418; CAMHB, CLSI/EUCAST broth microdilution, 5x10^5 CFU mL-1, 20-22 h, duplicates
Description: (§1) 5. Determination of the minimal inhibitory concentration (MIC) in vitro The MIC of Corramycin was evaluated following the Clinical & Laboratory Standard Institute (CLSI; https://clsi.org) and EUCAST (https://eucast.org) guidelines. First, inoculi of the bacterial test strains were prepared by culturing isolated colonies in cation-adjusted Müller Hinton broth (CAMHB; 2 g L-1 beef infusion solids, 1.5 g L-1 starch, 17.5 g L-1 casein hydrolysates, final pH 7.4) at 37 °C and 180 rpm for 18 h. Next, Corramycin, which was dissolved in DMSO, was transferred into the first row of a 96-well plate to reach an end concentration of 64 µg mL-1 (in 100 µL total volume). A 1:1 serial dilution in cation-adjusted Mueller Hinton broth (CAMHB) of the test compound was done from the top row to the bottom row of the 96-well plate to reach an end concentration of 0.125 µg mL-1 in the bottom row. Afterwards, the respective test strains were transferred into the wells, reaching a total volume of 100 µL and 5x10^5 colony-forming units (CFU) mL-1. After a 20 to 22 h of incubation, the optical density was evaluated on a microplate reader and the MIC endpoint was determined as the lowest concentration of antibiotic at which there was no visible growth observed. Each MIC experiment was performed in duplicates. Table S 4 depicts the MIC values of Corramycin against all bacterial strains tested in this study.
(§2) Table S 4. MIC values of Corramycin against all bacterial strains tested in this study. […]

Escherichia coli 1705863 = format: cell-based; conditions: strain 1705863; CAMHB, CLSI/EUCAST broth microdilution, 5x10^5 CFU mL-1, 20-22 h, duplicates
Description: as §1, §2

[2] = tested on: Escherichia coli NCTC13441; format: cell-based; conditions: strain NCTC13441; CAMHB, CLSI/EUCAST broth microdilution, 5x10^5 CFU mL-1, 20-22 h, duplicates
Description: as §1, §2

[3] = tested on: Klebsiella pneumoniae 1705949; format: cell-based; conditions: strain 1705949; CAMHB, CLSI/EUCAST broth microdilution, 5x10^5 CFU mL-1, 20-22 h, duplicates
Description: as §1, §2

[4] = tested on: Enterococcus faecium DSM17050; format: cell-based; conditions: strain DSM17050; CAMHB, CLSI/EUCAST broth microdilution, 5x10^5 CFU mL-1, 20-22 h, duplicates
Description: as §1, §2

[5] = tested on: Enterobacter cloacae DSM46348; format: cell-based; conditions: strain DSM46348; CAMHB, CLSI/EUCAST broth microdilution, 5x10^5 CFU mL-1, 20-22 h, duplicates
Description: as §1, §2

[6] = tested on: Escherichia coli ATCC35218; format: cell-based; conditions: strain ATCC35218; CAMHB, CLSI/EUCAST broth microdilution, 5x10^5 CFU mL-1, 20-22 h, duplicates
Description: as §1, §2

[7] = tested on: Escherichia coli DSM46345; format: cell-based; conditions: strain DSM46345; CAMHB, CLSI/EUCAST broth microdilution, 5x10^5 CFU mL-1, 20-22 h, duplicates
Description: as §1, §2

[8] = tested on: Escherichia coli MG1655 WT; format: cell-based; conditions: strain MG1655 WT; CAMHB, CLSI/EUCAST broth microdilution, 5x10^5 CFU mL-1, 20-22 h, duplicates
Description: as §1, §2

[9] = tested on: Enterococcus faecium A6349; format: cell-based; conditions: strain A6349; CAMHB, CLSI/EUCAST broth microdilution, 5x10^5 CFU mL-1, 20-22 h, duplicates
Description: as §1, §2

[10] = tested on: Enterobacter cloacae 17059482; format: cell-based; conditions: strain 17059482; CAMHB, CLSI/EUCAST broth microdilution, 5x10^5 CFU mL-1, 20-22 h, duplicates
Description: as §1, §2

[11] = tested on: Enterococcus faecalis 1069 VanB; format: cell-based
Description: as §1, with “study. […]” for “study.”

[12] = tested on: Salmonella typhimurium ATCC13311; format: cell-based; conditions: strain ATCC13311; CAMHB, CLSI/EUCAST broth microdilution, 5x10^5 CFU mL-1, 20-22 h, duplicates
Description: as §1, with “study. […]” for “study.”

[13] = tested on: Klebsiella pneumoniae 1705966; format: cell-based; conditions: strain 1705966; CAMHB, CLSI/EUCAST broth microdilution, 5x10^5 CFU mL-1, 20-22 h, duplicates
Description: as §1, with “study. […]” for “study.”

With `CO[C@@H](CNC(=O)[C@H](NC(=O)[C@H](O)[C@H](C)O)[C@H](O)c1cncn1C)[C@H](O)[C@H](O)C(=O)N(C)[C@@H](Cc1ccccc1)C(=O)NCC(=O)N[C@H](C(=O)N[C@@H](CO)C(=O)N[C@H](C(=O)N[C@@H](CC(C)C)C(=O)N[C@@H](CO)C(=O)O)C(C)(C)O)C(C)(C)O` [Corramycin] ({Butanoyl(2R-OH,3S-OH)}-[dHis(βS-OH,π-Me)][Ava(2S,3R-(OH)2,4S-OMe)][NMeF]G[Val(3-OH)]S[Val(3-OH)]LS-OH) the Cytotoxicity (mammalian cell lines) was “no cytotoxicity”, the MIC [1] was 8 µg/mL (≈ 6.76 µM) and the MIC (Escherichia coli 1705863) was 8 µg/mL (≈ 6.76 µM). It also gave an MIC [2] of 4 µg/mL (≈ 3.38 µM), an MIC [3] of 64 µg/mL (≈ 54 µM) and an MIC [4] of 64 µg/mL (≈ 54 µM). The MIC [5] was 32 µg/mL (≈ 27 µM), the MIC [6] was 1 to 4 µg/mL and the MIC [7] was 32 µg/mL (≈ 27 µM). For the same compound, the MIC [8] was 8 to 16 µg/mL, the MIC [9] was over 64 µg/mL and the MIC [10] was over 64 µg/mL. For the same compound, the MIC [11] was 16 µg/mL (≈ 13.5 µM), the MIC [12] was 4 µg/mL (≈ 3.38 µM) and the MIC [13] was over 64 µg/mL.
